Measured values reported in patent US10669289B2, “Boronic acid derivatives” (MERCK PATENT GMBH, priority 2014, dated 2020).

Experiments:
[1] = molecular target: human constitutive proteasome (Beta5) (Homo sapiens (Human), UniProt P28074); test: Determination of Beta5 activity (fluorescence intensity assay, Suc-LLVY-AMC); format: biochemical
How it was run: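 Purified human constitutive proteasome (1.25 nM) preincubated with compounds (30 μM–15 pM) for 20 min (default) or 120 min at 25 °C in 50 mM Tris pH 7.4, 0.03% SDS, 1 mM EDTA, 1% DMSO. Suc-LLVY-AMC substrate at 40 μM, 60 min at 37 °C. Fluorescence read at ex 350/em 450 nm.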

[2] = molecular target: human immuno proteasome (LMP7) (Homo sapiens (Human), UniProt P28062); test: Determination of LMP7 activity (fluorescence intensity assay, Suc-LLVY-AMC); format: biochemical
How it was run: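 Fluorogenic Suc-LLVY-AMC cleavage (40 μM substrate, 60 min, 37° C., ex 350/em 450 nm) measured after 0.25 nM human immunoproteasome was exposed to compound at 30 μM–15 pM. Preincubation was 20 min by default or 120 min (long) at 25° C., in Tris pH 7.4 with 0.03% SDS, 1 mM EDTA and 1% DMSO.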

[3] = LMP7 versus Beta5, incubation for 20 minutes
[4] = LMP7 versus Beta5, long incubation (120 min)

Structure (SMILES)	IC50 ([1]; incubation for 20 minutes) [nM]	Selectivity LMP7 vs Beta5 [2, 3]	IC50 ([2]; incubation for 20 minutes) [nM]	IC50 ([1]; long incubation (120 min)) [nM]	Selectivity LMP7 vs Beta5 [2, 4]	IC50 ([2]; long incubation (120 min)) [nM]
C=C(C)C(=O)N(CC)CC(=O)N[C@@H](Cc1ccc(C)cc1C)B(O)O [Compound No. 32, [(1R)-2-(2,4-dimethylphenyl)-1-[[2-[ethyl(2-methylprop-2-enoyl)-amino]acetyl]amino]ethyl]boronic Acid]	> 5000	+++ (70 ≤ 100)	50 to 500	–	–	–
C=CC(=O)N(CC(=O)N[C@@H](CCc1ccccc1)B(O)O)c1ccccc1F [Compound No. 101, [(1R)-1-[[2-(2-fluoro-N-prop-2-enoyl-anilino)acetyl]amino]-3-phenyl-propyl]boronic acid]	–	–	–	> 5000	+++++ (Selectivity ≥ 150)	< 50
C#CC(=O)N(C)CC(=O)N[C@@H](Cc1ccc(C)cc1C)B(O)O [Compound No. 11, [(1R)-2-(2,4-dimethylphenyl)-1-[[2-[methyl(prop-2-ynoyl)amino]-acetyl]amino]ethyl]boronic Acid]	500 to 5000	+++ (70 ≤ 100)	< 50	–	–	–
C=CC(=O)N(CC)CC(=O)N[C@@H](Cc1ccsc1)B(O)O [Compound No. 77, [(1R)-1-[[2-[ethyl(prop-2-enoyl)amino]acetyl]amino]-2-(3-thienyl)ethyl]boronic Acid]	–	–	–	> 5000	+++++ (Selectivity ≥ 150)	< 50
C=CC(=O)N(C)CC(=O)N[C@@H](Cc1ccc(C)cc1C)B(O)O [Compound No. 33, [(1R)-2-(2,4-dimethylphenyl)-1-[[2-[methyl(prop-2-enoyl)amino]-acetyl]amino]ethyl]boronic Acid]	> 5000	+++++ (Selectivity ≥ 150)	< 50	–	–	–
C=CC(=O)N(C)CC(=O)N[C@@H](Cc1ccc(Cl)cc1Cl)B(O)O [Compound No. 85, [(1R)-2-(2,4-dichlorophenyl)-1-[[2-[methyl(prop-2-enoyl)amino]acetyl]amino]ethyl]boronic Acid]	–	–	–	> 5000	+++++ (Selectivity ≥ 150)	< 50
C=CC(=O)N(CC)CC(=O)N[C@@H](Cc1ccc(F)cc1)B(O)O [Compound No. 30, [(1R)-1-[[2-[ethyl(prop-2-enoyl)amino]acetyl]amino]-2-(4-fluorophenyl)ethyl]boronic Acid]	> 5000	+++ (70 ≤ 100)	50 to 500	–	–	–
C=CC(=O)N(c1ccccc1)[C@@H](C)C(=O)N[C@@H](Cc1ccc(C)cc1C)B(O)O [Compound No. 46, [(1R)-2-(2,4-dimethylphenyl)-1-[[(2S)-2-(N-prop-2-enoylanilino)propanoyl]amino]ethyl]boronic Acid]	> 5000	++ (50 ≤ Selectivity < 70)	500 to 5000	–	–	–
C=CC(=O)N(CC(=O)N[C@@H](Cc1ccsc1)B(O)O)c1ccc(Cl)c(Cl)c1 [Compound No. 97, [(1R)-1-[[2-(3,4-dichloro-N-prop-2-enoyl-anilino)acetyl]amino]-2-(3-thienyl)ethyl]boronic Acid]	–	–	–	> 5000	+++++ (Selectivity ≥ 150)	< 50
Cc1ccc(C[C@H](NC(=O)CN(C)C(=O)/C=C/Cl)B(O)O)c(C)c1 [Compound No. 13, [(1R)-1-[[2-[[(E)-3-chloroprop-2-enoyl]-methyl-amino]acetyl]amino]-2-(2,4-dimethylphenyl)ethyl]boronic Acid]	500 to 5000	+++++ (Selectivity ≥ 150)	< 50	–	–	–
C/C=C(/C)C(=O)N(CC)CC(=O)N[C@@H](Cc1ccc(C)cc1C)B(O)O [Compound No. 21, [(1R)-2-(2,4-dimethylphenyl)-1-[[2-[ethyl-[(Z)-2-methylbut-2-enoyl]amino]acetyl]amino]ethyl]boronic Acid]	> 5000	++ (50 ≤ Selectivity < 70)	50 to 500	–	–	–
C=CC(=O)N(CC)CC(=O)N[C@@H](Cc1ccc(C)cc1C)B(O)O [Compound No. 34, [(1R)-2-(2,4-dimethylphenyl)-1-[[2-[ethyl(prop-2-enoyl)amino]acetyl]-amino]ethyl]boronic Acid]	> 5000	++++ (100 ≤ Selectivity < 150)	50 to 500	–	–	–
